Source: patent US20070071778A1 (ISP INVESTMENTS INC., priority 2005, published 2007)

System: mixed fungal inoculum (Aspergillus niger, Penicillium funiculosum and Stachybotrys chartarum)
Test: Fungicidal efficacy on water saturated gypsum boards
Format: cell-based
Design: key: Presence (+); Absence (−) of Fungal Growth
Conditions: gypsum board, 1,000 ppm triclosan, 28° C., 80% RH, 30-45 days
Procedure: The compositions of Example 9 were diluted to 1,000 ppm of triclosan. Then both sides of a gypsum board (cream and grey) sample (2×2×½ in.) were brush coated with each formulation and allowed to dry for 24 hours. The Controls were gypsum boards treated with only water or with only 1,000 ppm of triclosan in dimethyl sulfamide. The treated gypsum boards were then placed on a Petri dish and water was added to saturate the board. The water saturated gypsum boards were then inoculated with a mixed fungal inoculum (Aspergillus niger, Penicillium funiculosum and Stachybotrys chartarum) containing ca. 10^5 spores/ml. The samples were incubated at 28° C., 80% RH for 30-45 days and rated for the presence or absence of fungal growth thereon. Samples showing no growth were re-inoculated and incubated for another 30-45 days.

Oc1cc(Cl)ccc1Oc1ccc(Cl)cc1Cl [Triclosan, triclosan]
Presence (+)/Absence (−) of Fungal Growth, Cream Side: + | Presence (+)/Absence (−) of Fungal Growth, Grey Side: +
